From patent US20040058880A1, “Aminoglycoside antibiotics as novel anti-infective agents” (priority 2002, published 2004)
Converted amounts (≈) assume the structure as drawn.

Assays:
Assay in all cases: In vitro antibacterial MIC, 96-well broth assay
P. aeruginosa ATCC 27853 = assay type: cell-based, Pseudomonas aeruginosa; conditions: growth by A595 after 24 h, 10^5-10^6 CFU/well; for MIC: Pseudomonas aeruginosa, ATCC27853
Description: (§1) In Vitro Antibacterial Activity Determination of Minimum Inhibitory Concentrations (MICs).
(§2) The assays are carried out in 96-well flat-bottom plates. The bacterial suspension from an overnight culture grown in appropriate medium is added to a solution of test compound in water. Final bacterial inoculums are approximately 10^5-10^6 CFU/well. The percent growth of bacteria in test wells relative to that observed for a well containing no compound is determined by measuring absorbance at 595 nm (A595) after 24 h. The MIC (μg/mL) is determined as a range of single compound where the complete inhibition of growth is observed at the higher concentration and cells are viable at the lower concentrations. Tobramycin is used as an antibiotic-positive control in each screening assay for Pseudomonas aeruginosa, Acinetobacter species, Streptococci viridans, Proteus species, Hemophilus influenzae, Citrobacter species, Serratia marcescens, Staphylococcus aureus, Streptococcus pyogenes, Escherichia coli, Enterobacter species, Enterococcus faecalis, Enterococcus faecium Klebsiella pneumoniae and Providencia stuartii.

P. aeruginosa ATCC 35151 = assay type: cell-based, Pseudomonas aeruginosa; conditions: growth by A595 after 24 h, 10^5-10^6 CFU/well; for MIC: Pseudomonas aeruginosa, ATCC35151
Description: as §1, §2

P. aeruginosa PAO-1 = assay type: cell-based, Pseudomonas aeruginosa; conditions: growth by A595 after 24 h, 10^5-10^6 CFU/well; for MIC: Pseudomonas aeruginosa, PAO1
Description: as §1, §2

[1] = system: S. aureus ATCC 29213 (MSSA); assay type: cell-based, Staphylococcus aureus; conditions: growth by A595 after 24 h, 10^5-10^6 CFU/well; for MIC: Staphylococcus aureus
Description: as §1, §2

[2] = system: S. aureus ATCC 33591 (MRSA); assay type: cell-based, Staphylococcus aureus; conditions: growth by A595 after 24 h, 10^5-10^6 CFU/well; for MIC: Staphylococcus aureus
Description: as §1, §2

E. coli ATCC 25922 = assay type: cell-based, Escherichia coli; conditions: growth by A595 after 24 h, 10^5-10^6 CFU/well; for MIC: Escherichia coli, ATCC25922
Description: as §1, §2

E. faecalis ATCC 29212 = assay type: cell-based, Enterococcus faecalis; conditions: growth by A595 after 24 h, 10^5-10^6 CFU/well; for MIC: Enterococcus faecalis, ATCC29212
Description: as §1, §2

Molecule	MIC (P. aeruginosa ATCC 27853)	MIC (P. aeruginosa ATCC 35151)	MIC (P. aeruginosa PAO-1)	MIC [1]	MIC [2]	MIC (E. coli ATCC 25922)	MIC (E. faecalis ATCC 29212)	MIC P. aeruginosa ATCC 27853 (P. aeruginosa ATCC 27853)	MIC P. aeruginosa ATCC 35151 (P. aeruginosa ATCC 35151)	MIC P. aeruginosa PAO-1 (P. aeruginosa PAO-1)	MIC S. aureus ATCC 29213 (MSSA) [1]	MIC S. aureus ATCC 33591 (MRSA) [2]	MIC E. coli ATCC 25922 (E. coli ATCC 25922)	MIC E. faecalis ATCC 29212 (E. faecalis ATCC 29212)
NC[C@H]1O[C@H](O[C@H]2[C@H](O)[C@@H](OCC(O)CNCCCCNCC(O)CO[C@@H]3[C@@H](O)[C@H](O[C@H]4O[C@H](CN)[C@@H](O)C[C@H]4N)[C@@H](N)C[C@H]3N)[C@H](N)C[C@@H]2N)[C@H](N)C[C@@H]1O (stereo partly drawn) [Compound 13a]	2 µg/mL (≈ 2.46 µM)	4 µg/mL (≈ 4.92 µM)	2 µg/mL (≈ 2.46 µM)	0.5 µg/mL (≈ 0.615 µM)	16 µg/mL (≈ 19.7 µM)	4 µg/mL (≈ 4.92 µM)	32 µg/mL (≈ 39.4 µM)	–	–	–	–	–	–	–
NCC1OC(OC2C(N)CC(N)C(OC3OC(CO)C(O)C(OC4OC(CO)C(O)C(O)C4N)C3N)C2O)C(N)CC1O (stereo not drawn) [Compound 3d, 5-Amino-6-{3-amino-2-[4,6-diamino-3-(3-amino-6-aminomethyl-5-hydroxy-tetrahydro-pyran-2-yloxy)-2-hydroxy-cyclohexyloxy]-5-hydroxy-6-hydroxymethyl-tetrahydro-pyran-4-yloxy}-2-hydroxymethyl-tetrahydro-pyran-3,4-diol]	64 µg/mL (≈ 102 µM)	16 µg/mL (≈ 25.5 µM)	32 µg/mL (≈ 50.9 µM)	16 µg/mL (≈ 25.5 µM)	> 64 µg/mL	32 µg/mL (≈ 50.9 µM)	> 64 µg/mL	–	–	–	–	–	–	–
NC[C@H]1O[C@H](O[C@H]2[C@H](O)[C@@H](O[C@H]3O[C@H](CO)[C@@H](O)[C@H](O)[C@H]3N)[C@H](N)C[C@@H]2N)[C@H](N)C[C@@H]1O [Compound 3a, 4-(2,6-diamino-2,3,6-dideoxy-α-D-glucopyranosyl)-6-(2-amino-2-deoxy-1-α-D-glucopyranosyl)-2-deoxystreptamine]	1 µg/mL (≈ 2.14 µM)	1 µg/mL (≈ 2.14 µM)	0.5 µg/mL (≈ 1.07 µM)	1 µg/mL (≈ 2.14 µM)	> 64 µg/mL	2 µg/mL (≈ 4.28 µM)	16 µg/mL (≈ 34.2 µM)	–	–	–	–	–	–	–
NC[C@H]1O[C@H](O[C@H]2[C@H](OCC(O)CNCCCCNCC(O)CO[C@@H]3[C@@H](O)[C@H](N)C[C@H](N)[C@H]3O[C@H]3O[C@H](CN)[C@@H](O)C[C@H]3N)[C@@H](O)[C@H](N)C[C@@H]2N)[C@H](N)C[C@@H]1O (stereo partly drawn) [Compound 27a]	4 µg/mL (≈ 4.92 µM)	8 µg/mL (≈ 9.84 µM)	4 µg/mL (≈ 4.92 µM)	2 µg/mL (≈ 2.46 µM)	16 µg/mL (≈ 19.7 µM)	16 µg/mL (≈ 19.7 µM)	32 µg/mL (≈ 39.4 µM)	–	–	–	–	–	–	–
N=C(N)NC[C@H]1O[C@H](O[C@H]2[C@H](O)[C@@H](O[C@H]3O[C@H](CO)[C@@H](O)[C@H](O)[C@H]3N)[C@H](N)C[C@@H]2N)[C@H](N)C[C@@H]1O [Compound 4a, 4-(2-amino-6-guanidinyl-2,3,6-dideoxy-α-D-glucopyranosyl)-6-(2-amino-2-deoxy-1-α-D-glucopyranosyl)-2-deoxystreptamine]	> 64 µg/mL	> 64 µg/mL	64 µg/mL (≈ 126 µM)	64 µg/mL (≈ 126 µM)	> 64 µg/mL	64 µg/mL (≈ 126 µM)	> 64 µg/mL	–	–	–	–	–	–	–
NC[C@H]1O[C@H](O[C@H]2[C@H](O)[C@@H](O[C@H]3O[C@H](CNC4CC4)[C@@H](O)[C@H](N)[C@H]3O)[C@H](N)C[C@@H]2N)[C@H](N)C[C@@H]1O [Compound 9a]	64 µg/mL (≈ 126 µM)	32 µg/mL (≈ 63.2 µM)	32 µg/mL (≈ 63.2 µM)	8 µg/mL (≈ 15.8 µM)	8 µg/mL (≈ 15.8 µM)	32 µg/mL (≈ 63.2 µM)	> 64 µg/mL	–	–	–	–	–	–	–
NCCCCNCC(O)CO[C@@H]1[C@@H](O)[C@H](O[C@H]2O[C@H](CN)[C@@H](O)C[C@H]2N)[C@@H](N)C[C@H]1N (stereo partly drawn) [Compound 14a]	32 µg/mL (≈ 71 µM)	16 µg/mL (≈ 35.5 µM)	16 µg/mL (≈ 35.5 µM)	8 µg/mL (≈ 17.8 µM)	> 64 µg/mL	16 µg/mL (≈ 35.5 µM)	> 64 µg/mL	–	–	–	–	–	–	–
NC[C@H]1O[C@H](O[C@H]2[C@H](O)[C@@H](O[C@H]3O[C@H](CO)[C@@H](O)[C@H](N)[C@H]3O)[C@H](N)C[C@@H]2N)[C@H](N)C[C@@H]1O [Tobramycin, reference compound]	0.5 µg/mL (≈ 1.07 µM)	0.5 µg/mL (≈ 1.07 µM)	0.25 µg/mL (≈ 0.535 µM)	0.5 µg/mL (≈ 1.07 µM)	> 64 µg/mL	1 µg/mL (≈ 2.14 µM)	16 µg/mL (≈ 34.2 µM)	–	–	–	–	–	–	–
NC[C@H]1O[C@H](O[C@H]2[C@H](O)[C@@H](OCCCNCCCCNCCCO[C@@H]3[C@@H](O)[C@H](O[C@H]4O[C@H](CN)[C@@H](O)C[C@H]4N)[C@@H](N)C[C@H]3N)[C@H](N)C[C@@H]2N)[C@H](N)C[C@@H]1O [Compound 18a]	16 µg/mL (≈ 20.5 µM)	32 µg/mL (≈ 41 µM)	8 µg/mL (≈ 10.2 µM)	4 µg/mL (≈ 5.12 µM)	32 µg/mL (≈ 41 µM)	16 µg/mL (≈ 20.5 µM)	> 64 µg/mL	–	–	–	–	–	–	–
4-(2,6-diamino-2,3,6-dideoxy-α-D-glucopyranosyl)-6-(4-amino-4-deoxy-1-α-D-glucopyranosyl)-2-deoxystreptamine [Compound 3b]	–	–	–	–	–	–	–	16 µg/mL	16 µg/mL	8 µg/mL	32 µg/mL	>64 µg/mL	32 µg/mL	>64 µg/mL
NCCCCNCCCO[C@@H]1[C@@H](O)[C@H](O[C@H]2O[C@H](CN)[C@@H](O)C[C@H]2N)[C@@H](N)C[C@H]1N [Compound 19a]	> 32 µg/mL	> 32 µg/mL	> 32 µg/mL	> 32 µg/mL	> 32 µg/mL	> 32 µg/mL	> 32 µg/mL	–	–	–	–	–	–	–
4-(2,6-diamino-2,3,6-dideoxy-α-D-glucopyranosyl)-6-(2-amino-2-deoxy-4-amino-4-deoxy-α-D-glucopyranosyl)-2-deoxystreptamine [Compound 3c]	–	–	–	–	–	–	–	2 µg/mL	1 µg/mL	1 µg/mL	1 µg/mL	>64 µg/mL	2 µg/mL	32 µg/mL
